Data set [1] is described as follows: TGA/DSC behaviour during heating. The format is physicochemical. The settings on record: heating process; for weight loss during heating (TGA): FIG. 23A; for stability of crystal form during heating (DSC): FIG. 23B.
The nature of data set [2]: Rat pharmacokinetic study. The format is in vivo. The settings on record: rats; for bioavailability: intravenous 1-2 mg/kg, oral 2-40 mg/kg. How it is done: In the rat pharmacokinetic study, a group of rats (three rats) were injected intravenously with 1-2 mg/kg, and the second group of rats (three rats) were orally administered 2-40 mg/kg at 7 time points (0.25, 0.5, 1, 2, 4, 8, 16 hours) of the quinazoline derivative (I) of the present invention. Take blood to measure the concentration of the quinazoline derivative (I) of the present invention in the blood, and calculate the peak area and half-life. The calculation method of bioavailability is: (peak area of drug oral/oral dose)/(peak area of drug intravenous injection/intravenous dose)×100%.

Data set [3] deals with PC-9 tumor cell (EGFR Del 19 mutation). The data set is described as follows: CellTiter-Glo cell viability, PC-9 tumor cells. The format is cell-based. The settings on record: 72 hours, read-out: Inhibition of growth of PC-9 tumor cell (EGFR Del 19 mutation), IC50. How it is done:
(§1) Add 100 microliters of CellTiter-Glo reagent to each well and mix on an orbital shaker for 2 minutes to induce cell lysis. The plate was incubated at room temperature for 10 minutes to stabilize the luminescence signal. The luminescence signal was recorded on the TECAN Infinite M1000 Pro instrument.
In general terms: In ATP-based viability assays light output follows the ATP content of the culture.

Data set [4] concerns Glioma PDX with EGFRVIII mutation. The data set is described as follows: CellTiter-Glo cell viability, glioma tumor cells. The data set is classed as cell-based. As for the experimental part: as §1
A further data set deals with EGFRV3 (EGFRVIII) (Homo sapiens, UniProt P00533, DELINS30-297G). In words: Western blot of […] phosphorylation. The data set is classed as cell-based. To be noted: FIG. 21. The text has this: FIG. 21 is a schematic diagram of the inhibition of […] phosphorylation by quinazoline derivatives of the present invention;
It can be seen from Table 22 that the quinazoline derivative (I) with the configuration of R according to the present invention has unexpected […] mutation activity, which is >100 times higher activity than the enantiomer activity while has similar biological activity for EGFR Del 19 activating mutation.

Data set [5] in a line: Blood-brain barrier penetration in rats. The format is in vivo, rat. The settings on record: oral, four hours after administration. As for the experimental part:
To determine whether the quinazoline derivative (I) can cross the blood-brain barrier (BBB), the test compound was administered to rats orally. Four hours after the administration, the rats were killed, blood and brain tissue were collected, and the concentration of the test compound was analyzed. Brain penetration is defined as the ratio of the concentration of the compound in brain tissue to the concentration in plasma. Crossing the blood-brain barrier is the ratio of the free concentration of the drug in the brain tissue to the free concentration of the drug in the plasma. P-glycoprotein is an efflux protein of the blood-brain barrier, which discharges the P-glycoprotein substrate […]. Breast cancer resistance protein is an efflux protein from the blood-brain barrier, which excretes […].

The next data set addresses P-glycoprotein (Homo sapiens, UniProt P08183). The data set is described as follows: P-gp efflux substrate. The format is in vitro ADME.
For data set [6], the target named is T1, Breast cancer resistance protein (BCRP) (Homo sapiens, UniProt Q9UNQ0).
T1 sequence (Q9UNQ0 1-655): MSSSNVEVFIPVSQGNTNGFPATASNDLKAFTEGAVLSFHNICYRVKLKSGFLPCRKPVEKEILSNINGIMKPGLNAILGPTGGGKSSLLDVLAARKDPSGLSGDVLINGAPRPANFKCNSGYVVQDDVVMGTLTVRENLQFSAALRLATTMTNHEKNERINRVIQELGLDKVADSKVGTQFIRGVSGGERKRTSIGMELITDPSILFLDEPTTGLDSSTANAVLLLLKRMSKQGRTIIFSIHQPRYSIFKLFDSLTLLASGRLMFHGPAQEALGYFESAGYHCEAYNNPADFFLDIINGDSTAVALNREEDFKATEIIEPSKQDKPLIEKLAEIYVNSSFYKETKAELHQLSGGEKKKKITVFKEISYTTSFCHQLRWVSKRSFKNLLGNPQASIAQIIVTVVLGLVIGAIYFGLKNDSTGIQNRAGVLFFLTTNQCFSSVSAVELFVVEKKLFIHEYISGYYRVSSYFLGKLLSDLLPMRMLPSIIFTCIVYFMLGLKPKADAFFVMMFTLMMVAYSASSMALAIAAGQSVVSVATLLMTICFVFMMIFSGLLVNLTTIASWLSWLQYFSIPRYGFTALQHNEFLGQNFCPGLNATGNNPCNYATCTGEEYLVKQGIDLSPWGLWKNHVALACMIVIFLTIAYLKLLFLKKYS
In words: BCRP efflux substrate. The data set is classed as in vitro ADME.

Data set [7] deals with patient primary brain tumor tissue with EGFRVIII mutation. In words: Subcutaneous PDX mouse model of glioma with […] mutation. The data set is classed as in vivo. The settings on record: orally, twice a day, three weeks. As for the experimental part:
The patient's primary tumor tissue (brain tumor) was implanted under the skin of the mouse, and the tumor grew to about 150 cubic millimeters, and the medication was started for three weeks. […] The second group of quinazoline derivatives (I) single agent, 3 mg/kg, orally, twice a day, the third group of quinazoline derivatives (I) single agent, 10 mg/kg, orally, two times a day, the fourth group of quinazoline derivatives (I) is a single agent, 20 mg/kg, orally, twice a day.

The nature of data set [8]: Equilibrium solubility in water. The data set is classed as physicochemical. To be noted: room temperature, 24 hours, listed as quinazoline derivative (I) free base. How it is done: Experimental method: Weigh about 10 mg of solid sample (free base and various salt forms and crystal forms), add 1.5 mL of water, and after equilibrate at room temperature for 24 hours, take out 0.3 mL of turbid solution, and centrifuge to separate the lower solid and supernatant. After the supernatant was filtered through a 0.45 μm (PTFE) filter, the concentration of free alkali was tested.

The next data set addresses EGFR enzyme (Homo sapiens, UniProt P00533). In words: EGFR enzyme inhibition mechanism (ADP-Glo, ATP titration). The data set is classed as biochemical. The settings on record: ATP diluted from 600 uM, EGFR 0.4 nM to 0.0125 nM; FIG. 24. How it is done: In the experiment of the quinazoline derivative (I) of the present invention on the mechanism of inhibiting EGFR, the EGFR enzyme was added to the 384-well plate from 6 concentrations diluted in equal proportions (2 times) of 0.4 nM to 0.0125 nM and 0 concentration in polyE4Y1 solution, incubate for 15 minutes, add 7 concentrations of ATP diluted from 600 uM in equal proportions (2 times) to react for 60 minutes, add ADP-Glo reagent and detection reagent for 40 minutes to measure RLU signal. […] The benefits of this mechanism of action are obvious. The quinazoline derivative (I) of the present invention has this mechanism of action, showing high activity and high selectivity, and has the characteristics of small side effects and resistance to drug resistance.
A general note: In ADP-Glo the light output rises with the ADP produced.

The mark [9] stands for this setting: listed as quinazoline derivative fumarate salt.
[10] abbreviates: listed as quinazoline derivatives (I).

Structures can show the parent of a compound that is named as a salt. Where two headings read alike, the source gives them in different places.

Chain of P-glycoprotein (P08183 whole entry): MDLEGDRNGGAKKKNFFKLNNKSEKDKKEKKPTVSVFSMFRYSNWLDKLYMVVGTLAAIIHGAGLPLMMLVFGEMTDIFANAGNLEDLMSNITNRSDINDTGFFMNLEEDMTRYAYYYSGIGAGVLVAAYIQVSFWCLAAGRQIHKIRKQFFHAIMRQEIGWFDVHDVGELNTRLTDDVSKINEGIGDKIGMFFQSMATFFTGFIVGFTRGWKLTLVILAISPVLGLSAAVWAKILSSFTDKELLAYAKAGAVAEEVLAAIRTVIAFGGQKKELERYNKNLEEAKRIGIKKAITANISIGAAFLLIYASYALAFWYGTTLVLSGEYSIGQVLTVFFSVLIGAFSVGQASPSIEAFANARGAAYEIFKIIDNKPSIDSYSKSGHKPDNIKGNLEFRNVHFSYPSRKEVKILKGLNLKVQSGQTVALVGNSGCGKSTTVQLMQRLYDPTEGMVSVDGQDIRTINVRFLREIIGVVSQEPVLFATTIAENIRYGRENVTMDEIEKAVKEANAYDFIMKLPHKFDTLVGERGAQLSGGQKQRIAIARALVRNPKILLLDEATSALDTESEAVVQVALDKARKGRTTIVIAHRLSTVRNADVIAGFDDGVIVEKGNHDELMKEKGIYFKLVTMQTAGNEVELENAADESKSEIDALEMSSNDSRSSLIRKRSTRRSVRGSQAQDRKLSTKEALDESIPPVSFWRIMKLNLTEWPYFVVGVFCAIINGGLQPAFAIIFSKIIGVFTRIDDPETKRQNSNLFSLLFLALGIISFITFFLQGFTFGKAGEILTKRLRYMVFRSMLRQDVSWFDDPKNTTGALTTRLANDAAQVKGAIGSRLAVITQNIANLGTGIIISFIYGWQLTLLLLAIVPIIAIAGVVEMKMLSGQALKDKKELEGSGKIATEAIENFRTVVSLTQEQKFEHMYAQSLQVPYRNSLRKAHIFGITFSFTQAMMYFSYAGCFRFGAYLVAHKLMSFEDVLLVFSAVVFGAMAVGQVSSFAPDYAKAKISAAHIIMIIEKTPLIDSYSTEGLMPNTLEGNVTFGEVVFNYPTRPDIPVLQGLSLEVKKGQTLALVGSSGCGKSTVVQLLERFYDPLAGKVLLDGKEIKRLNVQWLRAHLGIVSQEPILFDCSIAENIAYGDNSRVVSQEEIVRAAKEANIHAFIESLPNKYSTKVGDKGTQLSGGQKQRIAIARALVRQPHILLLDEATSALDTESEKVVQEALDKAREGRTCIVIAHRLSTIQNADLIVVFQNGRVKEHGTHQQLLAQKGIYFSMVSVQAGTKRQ

On to `C#Cc1cccc(Nc2ncnc3cc(OC)c(O[C@@H]4CCN(C)CC4(F)F)cc23)c1F` [fumarate crystal form A, (R)-6-[(3,3-difluoro-1-methylpiperidin-4-yl)oxy]-N-(3-Ethynyl-2-fluorophenyl)-7-methoxyquinazolin-4-amine], for which, in [1], the “weight loss during heating (TGA)” value is reported as “no significant weight loss” and the “stability of crystal form during heating (DSC)” value was “good stability”. In data set [1] (setting [9]), the “weight loss during heating (TGA)” value is listed as “without significant weight loss” and the “stability of crystal form during heating (DSC)” value is “the crystal form is stable during heating”. The half-life (in general, the time in which the quantity being followed falls by half) in data set [2] (rat, blood) is 7.4 h. Moreover, in [2], the bioavailability – broadly, the share of a dose that reaches the circulation, judged against a reference dose that is usually intravenous – turned out to be 80%.

Take `C#Cc1cccc(Nc2ncnc3cc(OC)c(O[C@@H]4CCN(C)CC4(F)F)cc23)c1F` [Hydrochloride crystal form B, (R)-6-[(3,3-difluoro-1-methylpiperidin-4-yl)oxy]-N-(3-Ethynyl-2-fluorophenyl)-7-methoxyquinazolin-4-amine]: the bioavailability in data set [2] (rat, blood, po, read-out: bioavailability) was more than 60%.

For the compound `C#Cc1cccc(Nc2ncnc3cc(OC)c(O[C@@H]4CCN(C)CC4(F)F)cc23)c1F` [quinazoline derivative (I), (R)-6-[(3,3-difluoro-1-methylpiperidin-4-yl)oxy]-N-(3-Ethynyl-2-fluorophenyl)-7-methoxyquinazolin-4-amine], the IC50 (in general, the concentration at which inhibition is half-maximal) amounted to 8 nM in data set [3] and 10 nM in data set [4] (read-out: Inhibition of growth of Glioma PDX with EGFRVIII mutation, IC50, 72 hours, CellTiter-Glo). Moreover, the “EGFRVIII mutation activity relative to the enantiomer” value in data set [4] (R configuration vs S enantiomer) is more than 100 times. The “phosphorylation of EGFRV3” value at EGFRV3 (EGFRVIII) is “inhibited”. The “Blood brain barrier penetration rate (free concentration in brain tissue / free concentration in plasma)” value in data set [5] (setting [10]) is more than 50%. In addition, the Kp at 4 h in data set [5] (rat, brain tissue / plasma (free concentrations), read-out: Blood brain barrier penetration rate (free concentration in brain tissue / free concentration in plasma)) is more than 0.5. For the same compound, the P-gp efflux substrate entry at P-glycoprotein is “not a P-glycoprotein or BCRP substrate”; on P-glycoprotein (setting [10]) it was “no”. The values for the BCRP efflux substrate result in data set [6] and in data set [6] (setting [10]) were “not a P-glycoprotein or BCRP substrate” and “no”, respectively. The tumor reduction entry in [7] (20 mg/kg) was “caused tumor reduction”. For the same compound, the “inhibition of tumor growth vs control group” value in data set [7] (3, 10 and 20 mg/kg, FIG. 22) is “good inhibition of tumor growth”. Further, the “equilibrium solubility in water” value in data set [8] is less than 5 µg/mL. In addition, the “mechanism of inhibiting EGFR” value on EGFR enzyme was “non-ATP competition mechanism”.

The values are drawn from patent US20250282752A1, “Quinazoline Derivative Salt Crystal Form, Preparation Method and Application” (WEISHANG (SHANGHAI) BIO-PHARMACEUTICAL CO., LTD., priority 2018, published 2025).
